The source of these data is ChEMBL document CHEMBL1157375, “Prospective randomized trial of empiric therapy with trimethoprim-sulfamethoxazole or doxycycline for outpatient skin and soft tissue infections in an area of high prevalence of methicillin-resistant Staphylococcus aureus” (2007).

Molecules are shown by their SMILES. Calls of active or inactive are those of the source. No cut-off for these calls is given here.

The test system of this experiment is Staphylococcus aureus. Briefly: Antimicrobial activity against methicillin-resistant Staphylococcus aureus infected patient with skin and soft tissue infection abscesses assessed as clinical failure rate at 100 mg, po twice daily for 7 days. The class given is functional, organism-based.

On to `C[C@H]1c2cccc(O)c2C(=O)C2=C(O)[C@]3(O)C(=O)C(C(N)=O)=C(O)[C@@H](N(C)C)[C@@H]3[C@@H](O)[C@@H]21`, for which the outcome was Active.
